US10143720B2, “Modulation of hepatitis B virus cccDNA transcription” (DREXEL UNIVERSITY, priority 2012, dated 2018)
Entries after “also recorded” stand apart in the source; their conditions may differ. Where two headings read alike, the source gives them in different places. Where a SMILES comes first, the peptide text is derived from it. [ ]: non-standard residue; d: D form. β3hL = CC(C)C[C@H](N)CC(=O)O; Nva = CCC[C@H](N)C(=O)O

Assays:
[1] = system: HBV cccDNA; assay: cccDNA-dependent DHBV pgRNA / cccDNA transcription in dstet5 cells; assay type: cell-based; details: for Selectivity Index (SI): CC50 divided by EC50; for cccDNA transcription: Dstet5 cells
From the text: Most HBV producing cells lines produce HBV gene products from an HBV transgene integrated into the host chromosome, and thus cccDNA is not the major source of viral product. This makes screening for drugs that target cccDNA difficult. Cell lines were produced in which viral gene products are dependent upon cccDNA. It was established human Hep G2 and chicken hepatoma (LMH)-stable cell lines for this purpose with tetracycline (tet) regulated HBV/DHBV. […] Upon addition of tet back to media to block transgene transcription, and removal of PFA to allow the viral DNA synthesis in the pgRNA-containing capsid to proceed, there is a rapid decline of viral RNA (day 1 and 2), with an eventual increase to a higher level when cccDNA is made after day 3.
With a system and conditions under which viral transcripts are produced in a cccDNA dependent manner (FIGS. 1, 2B), approximately 100 compounds were screened, including those from the inventors' in-house small compound library, those present in the inventors' Natural Products collection, and selected compounds including inhibitors of cellular epigenetic modification enzymes, including HDACs, HATs, Sirtuins, histone methyltransferases, histone demethylases and DNA methyltransferases.

[2] = Toxicity on dstet5 cells; assay type: cell-based, chicken; details: chicken; dstet5 cells; concentration that reduces 50% of cell viability
[3] = system: HDAC-I; details: cited from earlier work; for HDAC-I inhibitor?: from cited references; for activity against class I HDACs: in words
[4] = system: HDAC-II; details: cited from earlier work; for HDAC-II inhibitor?: from cited references
[5] = system: HDAC III; details: cited from earlier work; for HDAC III inhibitor (printed in the HDAC-II inhibitor line): from cited references
[6] = system: dstet5 cells; assay: Toxicity on dstet5 cells; assay type: cell-based, chicken
[7] = system: HBV cccDNA; assay: HBV cccDNA transcription in HepG2 cells; assay type: cell-based, HBV in human HepG2 cells
[8] = system: DHBV transgene integrated in host cellular chromosome; assay: DHBV pgRNA transcription from transgene integrated in host cellular chromosome (FIG. 4); assay type: cell-based
[9] = cited from earlier work
[10] = cited from earlier work; remark: listed apart in the source
[11] = system: cccDNA; details: positive drug control; from our screen, Guo 2012; cited from earlier work
[12] = system: DHBV; assay: Duck hepadnavirus efficacy study; assay type: in vivo, Peking Ducks; details: by 3 weeks of treatment, expected
From the text: Six-week-old Peking Ducks, chronically infected with DHBV type 16 (Alberta Strain), are used. At 6 weeks, viremia and liver mass in ducks tends to have stabilized. Ducks are given, by either i.m. or oral gavage (depending on Aim 4 PK/TK results), test compound (3 dose groups, with dosing amount and frequency to depend on PK results, but aiming to achieve stable serum levels of at least 10 times the tissue culture IC50). There are three dose groups with 5-6 animals per dose group. Control dose groups (6 animals each group) include placebo treated animals and animals treated with either barraclude (1 mg/kg) or lamivudine (40 mg/kg) per day. At least three animals from all dose groups contribute at least one pre treatment and one post treatment liver biopsy. Treatment is for 10 weeks, since this exceeds the time for lamivudine to suppress viremia to beneath detectable levels and the reported ½ life of cccDNA in the duck. Ducks are followed with weekly serum collections for an additional 4 weeks after withdrawal of drug. Serum will be collected weekly.
Weekly serum is tested for standard “lab values” (hematology, albumin, AST, ALTs, The amount of DHBV viral DNA, sAg, sAb in the circulation is determined. Liver tissue derived from biopsies (some pre treatment and end of treatment from the same animals) is examined for DHBV DNA (cccDNA, replicative forms) and DHBV core (immunostained). […]

[13] = system: WHV; assay: WHV-infected woodchuck study; assay type: in vivo; details: by 10 weeks of treatment, expected
From the text: The study uses 10 groups, with 5 animals per group, with drug treatment for 10 weeks followed by 10 weeks off drug (to test durability of affect). Due to variability in the levels of viremia and antigenemia, animals are stratified to groups by WHV viremia and antigenemia levels as determined seven days prior to study start, so that the average levels of both viral markers are evenly distributed among all groups of animals. Animals with abnormally low WHVsAg levels are not used in this study. Compound is administered daily, by a route and frequency to be finalized after bioavailability studies in rodents. The first day of dosing on the study is Study Day 1. Study Day 1 dose levels are calculated on a pretest body weight, and body weights are taken weekly for dose administration. Dosing range is as for the mouse study over four doses, with Group 10 treated with Barraclude as a reference compound (Tennant).
The primary endpoint is a dose dependent reduction in viremia and antigenemia on and off drug achieving durable off drug reductions.
The benchmark of positive activity is LFMAU treated animals.

[14] = system: HDAC; details: relative to Apicidin; cited from earlier work
[15] = in Gallus gallus, read-out: HBV cccDNA (EC50, uM)

SMILES: CN(C)c1ccc(C(=O)NCCCCCCC(=O)NO)cc1 [4-(dimethylamino)-N-[7-(hydroxyamino)-7-oxoheptyl] benzamide]
- Selectivity Index (SI) [1]: >16
- EC50 [1, 15]: 6.25 µM
- CC50 [2]: > 100 µM
- HDAC-I inhibitor? [3]: YES^4,7
- HDAC-II inhibitor? [4]: YES &
- HDAC III inhibitor (printed in the HDAC-II inhibitor line) [5]: HDAC III^7,11

SMILES: CCC(=O)CCCCC[C@@H]1NC(=O)[C@H]2CCCCN2C(=O)[C@H]([C@@H](C)CC)NC(=O)[C@H](Cc2cn(OC)c3ccccc23)NC1=O [Apicidin, cyclo(N—O-methyl-L-tryptophanyl-L-isoleucinyl-D-pipecolinyl-L-2-amino-8-oxodecanoyl)]
- activity against the DHBV, in culture [1]: highly active
- cccDNA transcription ([1]; FIG. 3): repress
- EC50 ([1]; FIG. 3, read-out: inhibition of cccDNA, EC50): ~0.18 µM
- EC50 ([1]; dstet5 system, concentration that reduces 50% of the HBV specific signal (RNA and/or HBeAg), read-out: HBV cccDNA (EC50)): 0.183 µM
- toxicity ([6]; at up to 20 uM for five days): no toxicity
- CC50 ([6]; dstet5 cells, concentration that reduces 50% of cell viability): > 20 µM
- HBV cccDNA transcription [7]: repress
- cccDNA levels [7]: reduced
- DHBV pgRNA transcription from transgene integrated in host cellular chromosome [8]: dose-dependently stimulate
- HDAC-I inhibitor? [3]: YES^4,5
- activity against class I HDACs [3]: nanomolar activity; also recorded: efficiently inhibits
- aqueous solubility [9]: very poor
- half life in vivo [10]: very poor
- oral bioavailability ([10]; in vivo, po): very poor

SMILES: O=C(CN(c1cc(C(F)(F)F)ccc1Cl)S(=O)(=O)c1ccccc1)NCc1ccncc1 [CCC-0975]
- cccDNA formation [11]: inhibits

SMILES: Cc1cn([C@H]2O[C@@H](CO)[C@H](O)[C@H]2F)c(=O)[nH]c1=O [LFMAU]
- HBV viremia and antigenemia [12]: uniformly lost HBV viremia and even antigenemia
- HBV viremia and antigenemia [13]: uniformly lost HBV viremia and even antigenemia

SMILES: O=C(CCCCCCC(=O)NO)NO [Suberoyl bis hydroxamic acid (SBHA), Suberoyl bis hydroxamic acid]
- Selectivity Index (SI) [1]: >16
- EC50 [1, 15]: 2.5 µM
- CC50 [2]: > 40 µM
- HDAC-I inhibitor? [3]: YES^4,6,7,10
- HDAC-II inhibitor? [4]: YES &
- HDAC III inhibitor (printed in the HDAC-II inhibitor line) [5]: HDAC III^11

SMILES: CC(/C=C/C(=O)NO)=C\[C@@H](C)C(=O)c1ccc(N(C)C)cc1 [Trichostatin A]
- Selectivity Index (SI) [1]: >40
- cccDNA transcription ([1]; FIG. 3): repress
- EC50 [1, 15]: 0.48 µM
- CC50 [2]: > 20 µM
- HBV cccDNA transcription [7]: repress
- cccDNA levels [7]: reduced
- DHBV pgRNA transcription from transgene integrated in host cellular chromosome [8]: dose-dependently stimulate
- HDAC-I inhibitor? [3]: YES^5,6,9
- activity against class I HDACs [3]: inhibited
- HDAC-II inhibitor? [4]: YES^4,5,6,9
- activity against class II HDACs ([4]; in words): inhibited
- effect on class III HDACs (sirtuins) ([5]; in words): not affected

SMILES: CCC(=O)CCCCC[C@@H]1NC(=O)Cn2cc(nn2)[C@H](C(C)CC)NC(=O)[C@H](Cc2c[nH]c3ccccc23)NC1=O (stereo partly shown) [analog 1]
- anti HDAC potency [14]: without loss of anti HDAC potency

SMILES: CCC[C@@H]1NC(=O)[C@H](C)NC(=O)C[C@H](CC(C)C)NC(=O)[C@H](Cc2c[nH]c3ccccc23)NC1=O [analog 2] (cyclo(A[Nva]W[β3hL]))
- anti HDAC potency [14]: without loss of anti HDAC potency
